Assay results: PubChem BioAssay (NCI)
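The compound was tested at five concentrations on cells cultured in 96-well plates, with a 48-hour exposure period. Abbreviation: GI50, concentration required for 50% inhibition of growth. TGI denotes the concentration required for complete inhibition of growth.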

Legend:
Experiment in all cases: NCI anticancer screen, dose series, 48 h
KM12 colon = system: KM12 colon
SK-MEL-5 melanoma = system: SK-MEL-5 melanoma
SF-539 CNS = system: SF-539 CNS
U251 CNS = system: U251 CNS
HCT-15 colon = system: HCT-15 colon
HCT-116 colon = system: HCT-116 colon
IGROV1 ovarian = system: IGROV1 ovarian
MCF7 breast = system: MCF7 breast
NCI/ADR-RES ovarian = system: NCI/ADR-RES ovarian
MDA-MB-435 = system: MDA-MB-435
RPMI-8226 leukemia = system: RPMI-8226 leukemia
LOX IMVI melanoma = system: LOX IMVI melanoma
OVCAR-8 ovarian = system: OVCAR-8 ovarian
M14 melanoma = system: M14 melanoma
HT29 colon = system: HT29 colon
SN12C renal = system: SN12C renal
MOLT-4 leukemia = system: MOLT-4 leukemia
A549 NSCLC = system: A549 NSCLC
ACHN renal = system: ACHN renal
NCI-H23 lung = system: NCI-H23 lung
PC-3 prostate = system: PC-3 prostate
BT-549 breast = system: BT-549 breast
SK-MEL-2 melanoma = system: SK-MEL-2 melanoma
HOP-92 NSCLC = system: HOP-92 NSCLC
OVCAR-4 ovarian = system: OVCAR-4 ovarian
786-0 renal = system: 786-0 renal
CCRF-CEM leukemia = system: CCRF-CEM leukemia
CAKI-1 renal = system: CAKI-1 renal
EKVX NSCLC = system: EKVX NSCLC
NCI-H522 lung = system: NCI-H522 lung
SK-MEL-28 melanoma = system: SK-MEL-28 melanoma
HOP-62 NSCLC = system: HOP-62 NSCLC
SF-295 CNS = system: SF-295 CNS
SW-620 colon = system: SW-620 colon
SR leukemia = system: SR leukemia
SNB-75 CNS = system: SNB-75 CNS
SF-268 CNS = system: SF-268 CNS
COLO 205 colon = system: COLO 205 colon
MALME-3M melanoma = system: MALME-3M melanoma
SNB-19 CNS = system: SNB-19 CNS
MDA-MB-231 breast = system: MDA-MB-231 breast
DU-145 prostate = system: DU-145 prostate
TK-10 renal = system: TK-10 renal
NCI-H460 lung = system: NCI-H460 lung
OVCAR-5 ovarian = system: OVCAR-5 ovarian
UACC-257 melanoma = system: UACC-257 melanoma
HL-60(TB) leukemia = system: HL-60(TB) leukemia
HCC-2998 colon = system: HCC-2998 colon
K-562 leukemia = system: K-562 leukemia
UO-31 renal = system: UO-31 renal
NCI-H226 lung = system: NCI-H226 lung
A498 renal = system: A498 renal
UACC-62 melanoma = system: UACC-62 melanoma
OVCAR-3 ovarian = system: OVCAR-3 ovarian
HS 578T breast = system: HS 578T breast
SK-OV-3 ovarian = system: SK-OV-3 ovarian

COc1ccc(CNC(=O)NCn2cc(-c3ccccc3)nn2)cc1
TGI (KM12 colon): > 100000 nM | TGI (SK-MEL-5 melanoma): > 100000 nM | TGI (SF-539 CNS): > 100000 nM | TGI (U251 CNS): > 100000 nM | TGI (HCT-15 colon): > 100000 nM | TGI (HCT-116 colon): > 100000 nM | TGI (IGROV1 ovarian): > 100000 nM | TGI (MCF7 breast): > 100000 nM | TGI (NCI/ADR-RES ovarian): > 100000 nM | TGI (MDA-MB-435): > 100000 nM | TGI (RPMI-8226 leukemia): > 100000 nM | TGI (LOX IMVI melanoma): > 100000 nM | TGI (OVCAR-8 ovarian): > 100000 nM | TGI (M14 melanoma): > 100000 nM | TGI (HT29 colon): > 100000 nM | TGI (SN12C renal): > 100000 nM | TGI (MOLT-4 leukemia): > 100000 nM | TGI (A549 NSCLC): > 100000 nM | TGI (ACHN renal): > 100000 nM | TGI (NCI-H23 lung): > 100000 nM | TGI (PC-3 prostate): > 100000 nM | TGI (BT-549 breast): > 100000 nM | TGI (SK-MEL-2 melanoma): > 100000 nM | TGI (HOP-92 NSCLC): > 100000 nM | TGI (OVCAR-4 ovarian): > 100000 nM | TGI (786-0 renal): > 100000 nM | TGI (CCRF-CEM leukemia): > 100000 nM | TGI (CAKI-1 renal): > 100000 nM | TGI (EKVX NSCLC): > 100000 nM | TGI (NCI-H522 lung): > 100000 nM | TGI (SK-MEL-28 melanoma): > 100000 nM | TGI (HOP-62 NSCLC): > 100000 nM | TGI (SF-295 CNS): > 100000 nM | TGI (SW-620 colon): > 100000 nM | TGI (SR leukemia): > 100000 nM | TGI (SNB-75 CNS): > 100000 nM | TGI (SF-268 CNS): > 100000 nM | TGI (COLO 205 colon): > 100000 nM | TGI (MALME-3M melanoma): > 100000 nM | TGI (SNB-19 CNS): > 100000 nM | TGI (MDA-MB-231 breast): > 100000 nM | TGI (DU-145 prostate): > 100000 nM | TGI (TK-10 renal): > 100000 nM | TGI (NCI-H460 lung): > 100000 nM | TGI (OVCAR-5 ovarian): > 100000 nM | TGI (UACC-257 melanoma): > 100000 nM | TGI (HL-60(TB) leukemia): > 100000 nM | TGI (HCC-2998 colon): > 100000 nM | TGI (K-562 leukemia): > 100000 nM

COCCCC(NC(=O)C(CC(C)C)NC(=O)OCc1ccc(OC)cc1)C(N)=O (centres undefined)
GI50 (OVCAR-4 ovarian): 47.2 µg/mL

COc1cc2c(cc1O)CC[C@@H]1[C@@H]2CC[C@]2(C)[C@@H](OCCN(C)C)CC[C@@H]12
GI50 (UO-31 renal): 624 nM | TGI (UO-31 renal): 1480 nM | GI50 (NCI-H226 lung): 1170 nM | TGI (NCI-H226 lung): 6040 nM | GI50 (SK-MEL-5 melanoma): 82.8 nM | TGI (SK-MEL-5 melanoma): 164 nM | GI50 (SF-539 CNS): 129 nM | TGI (SF-539 CNS): 414 nM | GI50 (U251 CNS): 219 nM | TGI (U251 CNS): 872 nM | GI50 (IGROV1 ovarian): 818 nM | TGI (IGROV1 ovarian): 5940 nM | GI50 (MCF7 breast): 170 nM | TGI (MCF7 breast): 884 nM | GI50 (NCI/ADR-RES ovarian): 163 nM | TGI (NCI/ADR-RES ovarian): 861 nM | GI50 (MDA-MB-435): 99.7 nM | TGI (MDA-MB-435): 208 nM | GI50 (A498 renal): 569 nM | TGI (A498 renal): 1370 nM | GI50 (RPMI-8226 leukemia): 116 nM | TGI (RPMI-8226 leukemia): 312 nM | GI50 (LOX IMVI melanoma): 94.9 nM | TGI (LOX IMVI melanoma): 192 nM | GI50 (OVCAR-8 ovarian): 488 nM | TGI (OVCAR-8 ovarian): 5880 nM | GI50 (HT29 colon): 158 nM | TGI (HT29 colon): 568 nM | GI50 (SN12C renal): 803 nM | TGI (SN12C renal): 4050 nM | GI50 (A549 NSCLC): 247 nM | TGI (A549 NSCLC): 1190 nM | GI50 (NCI-H23 lung): 202 nM | TGI (NCI-H23 lung): 1120 nM | GI50 (SK-MEL-2 melanoma): 230 nM | TGI (SK-MEL-2 melanoma): 1040 nM | GI50 (OVCAR-4 ovarian): 306 nM | TGI (OVCAR-4 ovarian): 5840 nM | GI50 (CAKI-1 renal): 1450 nM | TGI (CAKI-1 renal): 6190 nM | GI50 (UACC-62 melanoma): 128 nM | TGI (UACC-62 melanoma): 363 nM | GI50 (OVCAR-3 ovarian): 183 nM | TGI (OVCAR-3 ovarian): 966 nM | GI50 (EKVX NSCLC): 527 nM | TGI (EKVX NSCLC): 28500 nM | GI50 (NCI-H522 lung): 341 nM | TGI (NCI-H522 lung): 1300 nM | GI50 (HOP-62 NSCLC): 389 nM | TGI (HOP-62 NSCLC): 1660 nM | GI50 (HS 578T breast): 463 nM | TGI (HS 578T breast): 4000 nM | GI50 (SW-620 colon): 163 nM | TGI (SW-620 colon): 763 nM | GI50 (SR leukemia): 148 nM | TGI (SR leukemia): 894 nM | GI50 (SNB-75 CNS): 78.7 nM | TGI (SNB-75 CNS): 449 nM | GI50 (SF-268 CNS): 353 nM | TGI (SF-268 CNS): 5290 nM | GI50 (COLO 205 colon): 521 nM | TGI (COLO 205 colon): 1170 nM | GI50 (MALME-3M melanoma): 155 nM | TGI (MALME-3M melanoma): 753 nM | GI50 (SNB-19 CNS): 777 nM | TGI (SNB-19 CNS): 5140 nM | GI50 (MDA-MB-231 breast): 153 nM | TGI (MDA-MB-231 breast): 595 nM | GI50 (SK-OV-3 ovarian): 356 nM | TGI (SK-OV-3 ovarian): 2110 nM | GI50 (DU-145 prostate): 182 nM | TGI (DU-145 prostate): 5350 nM | GI50 (TK-10 renal): 932 nM | TGI (TK-10 renal): 2810 nM | GI50 (NCI-H460 lung): 219 nM | TGI (NCI-H460 lung): 2090 nM | GI50 (UACC-257 melanoma): 138 nM | TGI (UACC-257 melanoma): 355 nM | GI50 (HL-60(TB) leukemia): 100 nM | TGI (HL-60(TB) leukemia): 232 nM | GI50 (HCC-2998 colon): 644 nM | TGI (HCC-2998 colon): 1500 nM | GI50 (K-562 leukemia): 150 nM | TGI (K-562 leukemia): 685 nM
